This note sets out measurements from ChEMBL document CHEMBL3853276, “Alkaloids from Hippeastrum argentinum and Their Cholinesterase-Inhibitory Activities: An in Vitro and in Silico Study” (J Nat Prod, 2016).

One test concerns the target Cholinesterase (Equus caballus, UniProt P81908). Briefly: Inhibition of equine serum BuChE using ATCI as substrate preincubated for 30 mins followed by substrate addition measured after 5 mins by DTNB-based spectrophotometric analysis.
The target of a further test is Acetylcholinesterase (Electrophorus electricus, UniProt O42275). Briefly: Inhibition of electric eel AChE using ATCI as substrate preincubated for 30 mins followed by substrate addition measured after 5 mins by DTNB-based spectrophotometric analysis.
Chain of Acetylcholinesterase (O42275 whole entry): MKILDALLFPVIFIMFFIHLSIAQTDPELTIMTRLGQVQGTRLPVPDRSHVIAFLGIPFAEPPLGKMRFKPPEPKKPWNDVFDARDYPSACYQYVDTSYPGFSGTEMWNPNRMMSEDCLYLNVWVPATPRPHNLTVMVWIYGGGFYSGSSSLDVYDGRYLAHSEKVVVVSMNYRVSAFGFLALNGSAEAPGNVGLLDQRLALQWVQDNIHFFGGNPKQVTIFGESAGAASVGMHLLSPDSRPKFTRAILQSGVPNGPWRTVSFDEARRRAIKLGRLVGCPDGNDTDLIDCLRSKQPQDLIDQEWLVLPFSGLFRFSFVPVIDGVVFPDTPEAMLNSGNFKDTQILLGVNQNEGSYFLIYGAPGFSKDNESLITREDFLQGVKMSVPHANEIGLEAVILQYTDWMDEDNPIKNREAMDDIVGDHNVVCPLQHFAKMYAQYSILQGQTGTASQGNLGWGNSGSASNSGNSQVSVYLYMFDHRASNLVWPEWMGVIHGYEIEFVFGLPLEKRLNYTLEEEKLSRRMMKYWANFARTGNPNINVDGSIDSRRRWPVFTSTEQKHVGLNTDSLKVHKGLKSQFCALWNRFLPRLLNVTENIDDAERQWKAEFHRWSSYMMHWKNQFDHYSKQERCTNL
The nature of test [1]: Selectivity index, ratio of IC50 for electric eel AChE to IC50 for equine serum BuChE.

The structures appear in SMILES notation. pIC50: −log10 of the molar value.

Chain of Cholinesterase (P81908 whole entry): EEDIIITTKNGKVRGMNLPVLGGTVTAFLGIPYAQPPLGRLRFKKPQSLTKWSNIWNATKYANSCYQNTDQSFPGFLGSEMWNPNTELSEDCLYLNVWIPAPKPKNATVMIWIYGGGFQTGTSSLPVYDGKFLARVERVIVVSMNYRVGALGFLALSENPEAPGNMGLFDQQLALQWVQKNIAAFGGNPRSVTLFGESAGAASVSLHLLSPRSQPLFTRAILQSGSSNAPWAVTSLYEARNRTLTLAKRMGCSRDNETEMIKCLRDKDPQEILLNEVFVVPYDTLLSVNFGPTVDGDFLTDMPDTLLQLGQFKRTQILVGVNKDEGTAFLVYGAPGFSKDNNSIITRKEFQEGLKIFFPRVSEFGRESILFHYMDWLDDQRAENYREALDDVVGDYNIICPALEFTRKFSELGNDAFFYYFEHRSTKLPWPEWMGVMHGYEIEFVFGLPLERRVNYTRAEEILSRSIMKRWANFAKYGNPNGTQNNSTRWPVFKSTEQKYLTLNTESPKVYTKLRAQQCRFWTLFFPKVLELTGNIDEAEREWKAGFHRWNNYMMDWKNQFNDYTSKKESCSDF

One may read the pIC50 as the IC50 on a negative log10 scale, so that one unit is a factor of ten. Low readings indicate a large IC50, high ones a small IC50. On to `O[C@H]1[C@H]2c3cc4c(cc3CN3CCC(=C[C@@H]1O)[C@H]23)OCO4` [LYCORINE], for which, on Cholinesterase, the pIC50 is less than 3.70.

For the molecule `CO[C@H]1C=C2[C@H]3C[N@@](Cc4cc5c(cc43)OCO5)[C@H]2C[C@@H]1O` [MONTANINE], the pIC50 at Cholinesterase and at Acetylcholinesterase was less than 3.70 in each case.

On to `CO[C@H]1[C@H]2C(=CC[C@@H]1O)[C@H]1CN2Cc2cc3c(cc21)OCO3`, for which the negative-log IC50 (pIC50) at Cholinesterase and on Acetylcholinesterase was less than 3.70 in each case.

Consider `O[C@H]1C=C2[C@H]3CN(Cc4cc5c(cc43)OCO5)[C@H]2C[C@@H]1O`, for which the pIC50 at Cholinesterase and against Acetylcholinesterase was less than 3.70 in each case.

`CN1CC[C@@H]2C[C@H](O)[C@H]3OC(=O)c4c(cc5c(c4O)OCO5)[C@H]3[C@@H]21`: the Ratio IC50 in test [1] amounted to 1.69. Also, the pIC50 on Cholinesterase was 4.17; on Acetylcholinesterase, 3.94.
